Measurements: patent US8183270B2, “Insecticidal N-substituted (2-substituted-1,3-thiazol)alkyl sulfoximines” (Dow AgroSciences, LLC, priority 2006, dated 2012)

Legend:
[1] = system: cotton aphid (Aphis gossypii); assay: Insecticidal test for cotton aphid in foliar spray assay; assay type: in vivo; details: foliar spray on squash cotyledons, 3 days after treatment, Corrected % Control (Abbott)
Description: The compounds identified in the foregoing examples (compounds 1-5) and in Table 1 (compounds 6-18) were tested against cotton aphid using procedures described hereinafter. Insecticidal Test for Cotton Aphid (Aphis gossypii) in Foliar Spray Assay Squash with fully expanded cotyledon leaves were trimmed to one cotyledon per plant and infested with cotton aphid (wingless adult and nymph) 1 day prior to chemical application. Each plant was examined before chemical application to ensure proper infestation (ca. 30-70 aphids per plant). Compounds (2 mg) were dissolved in 2 ml of acetone:methanol (1:1) solvent, forming stock solutions of 1000 ppm. The stock solutions were diluted 5× with 0.025% Tween 20 in H2O to obtain the highest test solution at 200 ppm. A lower test concentration (50 ppm) was prepared by making sequential a 4× dilution from the 200 ppm solution with a diluent consisting 80 parts of 0.025% Tween 20 in H2O and 20 parts of acetone:methanol (1:1). A hand-held Devilbiss sprayer was used to apply the spray solutions until runoff to both sides of the squash cotyledon leaves. Four plants (4 replications) were used for each concentration of each compound. Reference plants (solvent check) were sprayed with the diluent only. Treated plants were held in a holding room for 3 days at approximately 23° C. and 40% RH before the number of live aphids on each plant was recorded. Insecticidal activity was measured by Corrected % Control using Abbott's correction formula and the values for the lower test concentrations are presented in Table 1: Corrected % Control=100*(X−Y)/X • where X=No. of live aphids on solvent check plants • Y=No. of live aphids on treated plants CA 200 refers to % control at 200 ppm against cotton aphid in foliar spray tests, CA 50 refers to % control at 50 ppm against cotton aphid in foliar spray tests, In each case of Table 2 the rating scale is as follows: […]

| SMILES | CA 50 (% control at 50 ppm against cotton aphid in foliar spray tests) [1] | CA 200 (% control at 200 ppm against cotton aphid in foliar spray tests) [1] | melting point [°C] |
| --- | --- | --- | --- |
| CS(=O)(Cc1cnc(C(F)(F)F)s1)=NC#N (stereo not drawn) [Compound 1, Methyl(oxido){[2-(trifluoromethyl)-1,3-thiazol-5-yl]methyl}-λ^4-sulfanylidenecyanamide] | A (90-100) | A (90-100) | 123 to 124 |
| CC(C)(c1cnc(C(F)(F)F)s1)S(C)(=O)=NC#N (stereo not drawn) [Compound 2, Methyl(oxido){1-methyl-1-[2-(trifluoromethyl)-1,3-thiazol-5-yl]ethyl}-λ^4-sulfanylidenecyanamide] | C (70-79) | A (90-100) |  |
| CC(c1cnc(C(F)(F)F)s1)S(C)(=O)=NC#N (stereo not drawn) [Compound 3, Methyl(oxido){1-[2-(trifluoromethyl)-1,3-thiazol-5-yl]ethyl}-λ^4-sulfanylidenecyanamide] | A (90-100) | A (90-100) |  |
| N#CN=S1(=O)CCCC1Cc1cnc(C(F)(F)F)s1 (stereo not drawn) [Compound 4, 1-Oxo-2-(2-trifluoromethyl-thiazol-5-ylmethyl)-tetrahydro-1-λ^6-thiophen-1-ylidene-cyanamide] | A (90-100) | A (90-100) |  |
| CS(=O)(Cc1csc(C(F)(F)F)n1)=NC#N (stereo not drawn) [Compound 5, Methyl(oxido){[2-(trifluoromethyl)-1,3-thiazol-4-yl]methyl}-λ^4-sulfanylidenecyanamide] | E (50-59) | C (70-79) | 66 to 68 |
